According to paper PMC12721191, “Oxidative hypoxia drives TGF-β1–induced fibrosis under normoxia” (Redox Biology, 2025):

Key:
Recombinant PHD2 = molecular target: T1, Recombinant PHD2 (Homo sapiens, UniProt Q9GZT9); test: In vitro PHD2 enzymatic assay (HIF peptide hydroxylation, HPLC); format: biochemical
T1 construct: purchased ActiveMotif, Japan 81065
Procedure: To identify whether TGF-β1 directly affects PHD2 enzymatic activity, we performed an in vitro PHD2 assay using synthetic HIF-1α peptide as a substrate (Fig. 2h). […] To further investigate whether Fe^2+ oxidation impairs PHD2 activity, we introduced H2O2 into the reaction to promote Fe^2+ oxidation.
A reaction mixture (30 µL total volume) containing 300 µM HIF peptide, 1 µM recombinant PHD2, 20 mM Tris-HCl (pH 7.5), 1 mM DTT, 300 µM ascorbic acid, 5 mM KCl, 1.5 mM MgCl2, 50 µM Fe(SO4)·6H2O, and 300 µM α-ketoglutarate was incubated at 30 °C for 2 hr. The reaction was terminated by adding an equal volume (30 µL) of DMSO. Product analysis was carried out on Waters 2998 HPLC system equipped with a photodiode array detector and an XBridge™ BEH C18 column (4.6 × 250 mm, 5 µm), detecting at 280 nm. A hydroxylated HIF peptide served as a reference standard.

A549 [1] = test: Western blot of HIF-1α, fibrosis and EMT markers in A549; format: cell-based, human; settings: for HIF-1α and COL4A6 levels (Western blot): A549, TGF-β1 co-treatment
HIF-1α–EGFP in A549 = test: pg-HIF-1α–EGFP fluorescence in transfected A549; format: cell-based, human; settings: A549, co-treatment with TGF-β1
Procedure: pg-HIF-1α–EGFP was introduced via jetOPTIMUS®; GFP fluorescence was quantified 48 h post-transfection.
Transient transfection of A549 cells with pg-HIF-1α–EGFP was performed using jetOPTIMUS® according to the manufacturer’s protocol. Following 48 hr of transfection, the medium was replaced, and cells were treated with TGF-β1 at the specified concentration and duration before further analysis. Cell imaging was performed using an EVOS™ M7000 at 10×, 20×, or 40× magnification. GFP fluorescence intensity was measured using ImageJ. The mean fluorescence within the regions of interest (ROIs) was calculated after background subtraction, and values were normalized to the control condition

A549 [2] = test: Scratch migration assay; format: cell-based, human; settings: CoCl2 or FG-4592 treatment
colon = test: Colonic histopathology in the BLM mouse study; format: in vivo, ICR mice; settings: BLM mice; ACF-2 10 mg/kg i.p. every 2 days or NIDB 60 mg/kg/day
Description: Fixed left lung lobes were paraffin-embedded, sectioned (4 μm), and stained with H&E or MT. A blinded pathologist graded pulmonary fibrosis on the 1-8 Ashcroft scale; representative images illustrate typical lesions. Colon samples were processed by the swiss-roll method, stained with H&E, and scored for inflammation and erosion, which were combined into a composite histological score. All animal studies were approved by the Institutional Animal Care and Use Committee of Jeju National University (Approval ID: 2024-0058) and conducted in compliance with institutional guidelines. Male ICR mice (6 weeks old, average body weight 27 g) were purchased from […] (South Korea) and housed under controlled temperature (22 ± 2 °C) and humidity (0.0 ± 15.0 %) on a 12 hr light-dark cycle with free access to food and water. […] Colon tissue: Colons were harvested, flushed with 1xPBS, and prepared using the swiss-roll method before embedding in paraffin. Sections of 4 μm thickness were subjected to H&E staining as described above. Colonic injury was evaluated by two independent parameters: (i) inflammation score (0-3) and (ii) erosion score (0-3). A composite histological score was then calculated as the sum of inflammation and erosion scores for each sample.

[3] = tested on: BLM-induced pulmonary fibrosis; test: BLM-induced pulmonary fibrosis, Ashcroft scoring of lung sections; format: in vivo, ICR mice; settings: BLM 30 mg/kg intratracheal; ACF-2 10 mg/kg i.p. every 2 days or NIDB 60 mg/kg/day in drinking water, 2 weeks; BLM-only 6.2
Procedure: Male ICR mice received BLM (30 mg/kg, intratracheal). […] Fixed left lung lobes were paraffin-embedded, sectioned (4 μm), and stained with H&E or MT. A blinded pathologist graded pulmonary fibrosis on the 1-8 Ashcroft scale; representative images illustrate typical lesions. Colon samples were processed by the swiss-roll method, stained with H&E, and scored for inflammation and erosion, which were combined into a composite histological score. All animal studies were approved by the Institutional Animal Care and Use Committee of Jeju National University (Approval ID: 2024-0058) and conducted in compliance with institutional guidelines. Male ICR mice (6 weeks old, average body weight 27 g) were purchased from […] (South Korea) and housed under controlled temperature (22 ± 2 °C) and humidity (0.0 ± 15.0 %) on a 12 hr light-dark cycle with free access to food and water. […] Lung tissue: Left lung lobes were fixed in 4% paraformaldehyde for 24 h, dehydrated, and embedded in paraffin. Sections of 4 μm thickness were prepared, deparaffinized with xylene, and rehydrated in a graded ethanol series. H&E staining was performed using hematoxylin and eosin solutions, respectively. The severity of fibrosis was graded according to the Ashcroft scale (1-8), as evaluated by a pathologist blindly. Representative H&E images were chosen to illustrate the most characteristic pathology. […]

[4] = tested on: BLM-induced pulmonary fibrosis; test: RT-qPCR of lung tissue in BLM-treated mice; format: in vivo, ICR mice; settings: BLM 30 mg/kg; ACF-2 10 mg/kg i.p. every 2 days or NIDB 60 mg/kg/day
Procedure: Total RNA (AccuPrep®) was reverse-transcribed and amplified with SYBR Green chemistry on a StepOnePlusTM system; relative expression was calculated by ΔΔCt. Male ICR mice received BLM (30 mg/kg, intratracheal). […] Total RNA was extracted from both cultured cells and mouse lung tissue using the AccuPrep® Universal RNA Extraction Kit. […] RT-qPCR was performed using iTaqTM Universal SYBR® Green Supermix on a StepOnePlusTM Real-Time PCR System. […] All animal studies were approved by the Institutional Animal Care and Use Committee of Jeju National University (Approval ID: 2024-0058) and conducted in compliance with institutional guidelines. Male ICR mice (6 weeks old, average body weight 27 g) were purchased from […] (South Korea) and housed under controlled temperature (22 ± 2 °C) and humidity (0.0 ± 15.0 %) on a 12 hr light-dark cycle with free access to food and water.

T1 sequence (Q9GZT9 whole entry): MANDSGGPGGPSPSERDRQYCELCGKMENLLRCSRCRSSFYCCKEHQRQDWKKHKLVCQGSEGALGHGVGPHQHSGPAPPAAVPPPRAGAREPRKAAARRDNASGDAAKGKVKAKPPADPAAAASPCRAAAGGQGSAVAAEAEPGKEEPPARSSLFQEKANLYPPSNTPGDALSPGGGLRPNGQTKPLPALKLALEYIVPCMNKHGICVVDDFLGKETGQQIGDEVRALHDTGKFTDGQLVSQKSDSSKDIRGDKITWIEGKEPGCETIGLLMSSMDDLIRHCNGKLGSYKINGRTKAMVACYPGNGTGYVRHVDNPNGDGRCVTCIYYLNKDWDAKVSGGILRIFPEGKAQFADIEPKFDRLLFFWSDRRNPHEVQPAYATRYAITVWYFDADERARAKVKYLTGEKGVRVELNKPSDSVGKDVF

O.Oc1cc(O)c2c(c1)O[C@H](c1ccc(O)c(O)c1)[C@@H](O)C2 [Catechin]
effect on PHD2 activity (Recombinant PHD2; ambient air, comparable concentrations to ACF-2): failed to preserve or enhance PHD2 activity

c1ccc2c(c1)[I+]c1ccccc1-2 [DPI, diphenyleneiodonium chloride, reference compound]
HIF-1α and COL4A6 levels (Western blot) (A549 [1]): markedly reduced HIF-1α and COL4A6 levels
TGF-β1–induced HIF-1α–EGFP GFP fluorescence intensity (HIF-1α–EGFP in A549): substantial drop in GFP intensity

Cc1nc(C(=O)NCC(=O)O)c(O)c2ccc(Oc3ccccc3)cc12 [FG-4592]
fibrosis-associated proteins (fibronectin, α-SMA, COL3A1, COL4A6) (A549 [1]; A549, ambient air, CoCl2 200 μM, FG-4592 50 μM): increased expression of fibrosis-associated proteins
cell migration (wound healing) (A549 [2]): significant increase in cell migration

OO [H2O2]
effect on PHD2 activity (H2O2 added to the reaction) (Recombinant PHD2; H2O2 introduced to promote Fe2+ oxidation): inhibited PHD2 activity in a dose-dependent manner

COC(=O)c1ccc2c(c1)NC(=O)/C2=C(\Nc1ccc(N(C)C(=O)CN2CCN(C)CC2)cc1)c1ccccc1 [NIDB, nintedanib, reference compound]
composite histological score of colon (inflammation + erosion) (colon): significantly increased the composite histological score
Average Ashcroft score [3]: 3.8
TGF-β1 (Tgfb1) expression in lung (RT-qPCR) [4]: markedly reduced

CN(C)c1cccc(-c2c3c(=O)n(-c4ccccc4Cl)[nH]c3cc(=O)n2C)c1 [Setanaxib]
HIF-1α and COL4A6 levels (Western blot) (A549 [1]): markedly reduced HIF-1α and COL4A6 levels

COc1cc(C(C)=O)ccc1O [apocynin]
HIF-1α and COL4A6 levels (Western blot) (A549 [1]): markedly reduced HIF-1α and COL4A6 levels
